Data published in patent US8309790B2, “Animal models for demyelination disorders” (University of Chicago, priority 2005, dated 2012).
“And” between values parts separate entries of the source, which are not always exact repeats. Equal values may be shown once.

How the values were obtained:
Assay type in all cases: in vivo
[1] = tested on: corpus callosum of double transgenic mice treated with cuprizone; experiment: Cuprizone-induced demyelination and remyelination in GFAP/tTA; TRE/IFN-γ double transgenic mice
Method: The effects of IFN-γ on demyelination were evaluated in a cuprizone animal model using transgenic mice that allow for temporally regulated delivery of IFN-γ using the tetracycline controllable system (Lin, et al. (2004) J. Neurosci. 24: 10074-10083). The transgenic mice were generated by mating line 110 GFAP/tTA mice on the C57BL/6 background with line 184 TRE/IFN-γ on the C57BL/6 background to produce GFAP/tTA; TRE/IFN-γ double transgenic mice (Lin, et al. (2004) J. Neurosci. 24: 10074-10083). Transcriptional activation of the TRE/IFN-γ transgene by tTA was repressed in the control (DOX+) mice by adding 0.05 mg/ml doxycycline to the drinking water which was provided ad libitum from the day of conception. The DOX+ double transgenic mice were GFAP/tTA; TRE/IFN-γdouble transgenic animals fed cuprizone chow and never released from the doxycycline solution. DOX− double transgenic mice were GFAP/tTA; TRE/IFN-γdouble transgenic animals fed cuprizone chow and released from doxycycline to induce expression of IFN-γ.
Demyelination was induced in 6-week-old DOX+ and DOX− male mice by feeding the mice a diet of milled mouse chow containing 0.2% cuprizone (Sigma-Aldrich, St. Louis, […].) for up to 6 weeks. Subsequently, both groups of mice were returned to a normal diet for up to 3 weeks to allow remyelination to occur. All animal procedures were conducted in complete compliance with the NIH Guide for the Care and Use of Laboratory Animals and were approved by the Institutional Animal Care and Use Committee of The University of Chicago.
The effects of INF-γ and MBP on demyelination were evaluated as the level of INF-γ and MHC-1, the loss of oligodendrocytes, and the expression of myelin genes.
The expression of IFN-γ in these animals was examined by Enzyme-Linked Immunosorbent Assay (ELISA) analysis as follows. Spinal cord and forebrains were removed, rinsed in ice cold PBS, and immediately homogenized in five volumes of PBS with complete protease cocktail (Roche, Indianapolis, Ind.) using a motorized homogenizer. After incubation on ice for 5 min the extracts were cleared by centrifugation at 14000 rpm for 10 min. The protein content of each extract was determined by the DC protein assay (Bio-Rad, Hercules, Calif.). […]
The effect of INF-γ on the population of oligodendrocytes was evaluated by immunohistochemical analysis of oligodendrocytes using an anti-CC1 antibody (APC7, 1:50; EMD Biosciences, Inc., La Jolla, Calif.) Immunohistochemistry was performed on brain sections obtained from mice that were first anesthetized mice and perfused through the left cardiac ventricle with 4% paraformaldehyde in 0.1 M PBS. […]

[2] = tested on: mice with EAE; experiment: EAE, CNS delivery of INF-γ at the recovery stage (doxycycline withdrawn at PID7)
Text: Double transgenic mice that allow for temporally regulated delivery of INF-γ to the CNS (Lin et al., J Neurosci 24:10074-10083 (2004)) were used to assess the role of INF-γ in the pathogenesis of EAE. GFAP/tTA; TRE/IFN-γ double transgenic mice, as described in Example 1 were used to determine the effect of INF-γ on the demyelination caused by EAE. All mice were fed doxycycline from the day of conception to repress the expression of INF-γ, and were immunized with myelin oligodendrocyte protein (MOG35-55) to induce EAE. At day 7 postimmunization (PID7), doxycycline was withdrawn from the experimental group (PID7 DOX−).
The level of INF-γ was determined in the control (DOX+) and the PID7 DOX− mice using an ELISA immunoassay as described in Example 1, and the severity of the disease was assessed as a function of a clinical score. Clinical severity scores were recorded daily according to a 0-5 point scale, where 0=healthy, 1=flaccid tail, 2=ataxia and/or paresis of hind limbs, 3=paralysis of hind limbs and/or paresis of forelimbs, 4=tetraparalysis, and 5=moribund or dead.
The spinal cord from DOX+ and DOX− animals with EAE was immunostained for MBP, and the remyelination of axons was evaluated. The number of oligodendrocytes was determined in the spine from DOX+ and DOX− mice as the number of CC1 positive cells. Axonal damage was evaluated by immunostaining of non-phosphorylated neurofilament-H. Antibodies to non-phosphorylated neurofilament-H were SMI32 diluted to 1:1000 and obtained from Stemberger Monoclonals.
INF-γ is known to induce MHC antigens and activate macrophages and T lymphocytes. The inflammatory effect of INF-γ was studied in the CNS during remyelination by determining the infiltration of T cells and macrophages, and measuring the expression of MHC-1, TNF-a, IL-2, IL-12 and IL-17. Immunohistochemistry was performed in tissues from the DOX+ and DOX− mice with EAE as described in Example 4. Experimental procedures were followed as described in the examples above.

[3] = tested on: mice with EAE; experiment: EAE, CNS delivery of INF-γ at the onset of EAE, double (PERK+/+) and triple (PERK+/−) mice; conditions: for Mean of maximum clinical score (mean ± S.D.): 0-5 point scale; for Day of onset of disease (PID: postimmunization day): n = 25; for expression of iNOs, TNF-a, IL-2, IL-12 and IL-10 in the spinal cord: PID 14 (EAE onset), DOX− vs DOX+
[4] = spinal cord, DOX− compared to DOX+, PID50

## interferon-γ [IFN-γ]
[1]; DOX− mice, corpus callosum, 8 weeks, EM
  remyelinated axons: 26.9%±7%
[1]; DOX− mice, corpus callosum, week 6 and week 8
  expression of myelin genes MBP, PLP and CGT: significantly depressed
[1]; DOX− mice, during remyelination
  expression of MHC class I (MHC-I) in the corpus callosum, real-time PCR: significant increase
[1]; DOX− vs DOX+ mice, up to 5 weeks cuprizone
  effect on the initial pathological processes induced by cuprizone exposure: does not have a significant effect
[2]; DOX− animals, lumbar spinal cord, PID50
  number of CC1 positive oligodendrocytes: significantly decreased
[2]; DOX− mice, PID17
  mice that developed hind limb paralysis: 24 of 30
[2]; DOX− mice, PID17, 0-5 point scale
  mean maximum clinical score: 2.69±0.69
[2]; DOX− mice, PID50
  clinical score: ~2
  mice with hind limb paralysis that continued to suffer from the paralysis: 12/24
[2]; DOX− vs DOX+ mice
  axonal damage (non-phosphorylated neurofilament-H immunostaining): not affected
  number of infiltrating T cells and macrophages in the lumbar spinal cord (CD3, CD11b): did not increase significantly
[2]; [4]
  expression of IL-17: decrease
  expression of iNOs and IL-23: did not alter
[2]; spinal cord, DOX− compared to DOX+, PID50, real time PCR
  expression of MHC-1, TNF-a, IL2 and IL-12: increased
[3]; DOX− double mice
  Mean of maximum clinical score (mean ± S.D.): 1.63 ± 0.51
  Day of onset of disease (PID: postimmunization day): 14.7 ± 1.4
[3]; DOX− double mice, PID17, real-time PCR
  MBP mRNA in the spinal cord compared to age-matched naïve mice: not significantly decreased
[3]; DOX− double mice, listed as INF-γ
  Incidence of hind limb paralysis: 2 of 25 and 2/25
[3]; DOX− triple mice (PERK+/−)
  Incidence of hind limb paralysis: 18/25
  Mean of maximum clinical score (mean ± S.D.): 2.71 ± 1.11
  Day of onset of disease (PID: postimmunization day): 13.6 ± 0.8
[3]
  expression of iNOs, TNF-a, IL-2, IL-12 and IL-10 in the spinal cord: strongly enhanced
[3]; listed as INF-γ
  expression of iNOs, TNF-a, IL-2, IL-12 and IL-10 in the spinal cord: increased
[3]; PID 14, DOX− vs DOX+
  expression of IL-2 and IL-5 in the spinal cord: did not affect
[3]; at EAE onset
  CD3 positive T cell infiltration in the spinal cord: did not significantly affect
  CD11b positive monocyte infiltration in the spinal cord: increased
[3]; at the peak of disease
  CD11b positive monocyte infiltration: did not change
  expression of iNOs or TNF-γ: did not significantly affect
[3]; mice heterozygous for the PERK mutation
  EAE disease course: did not ameliorate
[3]; spinal cord, EAE onset
  PERK-eIF2α pathway in oligodendrocytes (p-PERK, p-eIF2α, CC1 colocalization): markedly activated
